pIC50: −log10 of the molar value.

In general, pIC50 refers to the IC50 on a negative log10 scale, so that one unit is a factor of ten.

One assay has as its target T1, TcAUK1 (Trypanosoma cruzi, UniProt Q4DKE3).
T1 construct: gene Tc00.1047053508817.80; recombinant, expressed in E. coli (pET15b), renatured and purified
Kind of assay: […]-ATP phosphorylation of Tcpolβ, SDS-PAGE autoradiography; over […] decrease at […]. Type of assay: biochemical.

Another assay deals with T2, TcCK2α (Trypanosoma cruzi, UniProt Q4E340).
T2 construct: gene Tc00.1047053508741.320; recombinant TcCK2α in hybrid CK2 holoenzyme; with S. pombe CK2β (pCK2β)
Kind of assay: […]-ATP phosphorylation of pCK2β, SDS-PAGE autoradiography. Type of assay: biochemical.

T1 sequence (Q4DKE3 entry or part of it): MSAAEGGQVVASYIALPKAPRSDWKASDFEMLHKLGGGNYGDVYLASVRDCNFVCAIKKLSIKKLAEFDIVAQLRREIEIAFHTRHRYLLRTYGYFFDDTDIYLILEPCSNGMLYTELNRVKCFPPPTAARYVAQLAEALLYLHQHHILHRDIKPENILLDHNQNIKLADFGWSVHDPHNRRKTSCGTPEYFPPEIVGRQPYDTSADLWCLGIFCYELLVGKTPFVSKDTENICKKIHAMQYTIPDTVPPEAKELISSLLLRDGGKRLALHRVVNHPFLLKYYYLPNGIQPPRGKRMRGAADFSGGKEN
T2 sequence (P40232 whole entry): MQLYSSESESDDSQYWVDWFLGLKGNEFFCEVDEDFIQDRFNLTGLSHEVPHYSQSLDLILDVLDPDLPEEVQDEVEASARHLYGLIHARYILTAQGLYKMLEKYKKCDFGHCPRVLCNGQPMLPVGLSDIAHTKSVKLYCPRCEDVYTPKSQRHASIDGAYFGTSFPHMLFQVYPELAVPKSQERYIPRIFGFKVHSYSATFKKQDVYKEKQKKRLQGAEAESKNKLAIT
T2 sequence (Q4E340 entry or part of it): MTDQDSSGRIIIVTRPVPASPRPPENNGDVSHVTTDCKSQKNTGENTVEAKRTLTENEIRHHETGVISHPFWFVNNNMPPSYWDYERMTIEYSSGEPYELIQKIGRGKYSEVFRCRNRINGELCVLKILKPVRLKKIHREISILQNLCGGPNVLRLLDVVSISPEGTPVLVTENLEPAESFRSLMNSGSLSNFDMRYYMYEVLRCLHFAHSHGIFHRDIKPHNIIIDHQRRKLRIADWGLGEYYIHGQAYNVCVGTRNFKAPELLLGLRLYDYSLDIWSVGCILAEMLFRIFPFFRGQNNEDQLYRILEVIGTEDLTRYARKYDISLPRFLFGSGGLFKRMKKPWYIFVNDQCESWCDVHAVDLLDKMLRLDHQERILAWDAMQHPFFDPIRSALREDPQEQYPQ

As to `O=C(Nc1cccc(Cl)c1)Nc1ncc(CCNc2ncnc3ccsc23)s1` [SNS314], at TcAUK1, the “32P-ATP phosphorylation of Tcpolβ, SDS-PAGE autoradiography; over 60% decrease a” value was ~ 48 nM.
At TcCK2α, `Brc1c(Br)c(Br)c2[nH]nnc2c1Br` [TBB, 4,5,6,7-tetrabromobenzotriazole] had a pIC50 of 6.00 to 6.30.
